The numbers were not newly measured in US6409991B1, “Treatment and system for nicotine withdrawal” (priority 1999, dated 2002), which cites them from elsewhere.

In the case of `CN1CCCC1c1cccnc1` (stereo not shown) [nicotine], the plasma half-life entry is “approximately two”.
